Measured values reported in article PMC4710522, “A Novel Triazolopyridine-Based Spleen Tyrosine Kinase Inhibitor That Arrests Joint Inflammation” (PLoS ONE, 2016).
Several values for one entry are separate records, joined by “and”; a condition that tells them apart may be missing. Equal entries are not always repeated.

Legend:
Assay in all cases: SelectScreen kinase assay
Format in all cases: biochemical
ARK5_h = biological target: T1, ARK5_h (Homo sapiens, UniProt O60285); settings: KM ATP, read-out: % control
T1 construct: purchased Life Technologies (Invitrogen) SelectScreen, Z'-LYTE / Adapta
How it was run: (§1)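 Each enzyme is assayed by Z'-Lyte or Adapta with the compound at a constant 3 µM. ATP is used at that enzyme's KM or at 10 or 100 µM. Activity is expressed relative to DMSO-only controls.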

Abl_Y253F_h = biological target: T2, Abl_Y253F_h (Homo sapiens, UniProt P00519, Y253F); settings: KM ATP, read-out: % control
T2 construct: purchased Life Technologies (Invitrogen) SelectScreen, Z'-LYTE / Adapta
How it was run: as §1

Abl_h = biological target: T3, Abl_h (Homo sapiens, UniProt P00519); settings: KM ATP, read-out: % control
T3 construct: purchased Life Technologies (Invitrogen) SelectScreen, Z'-LYTE / Adapta
How it was run: as §1

BRK_h = biological target: T4, BRK_h (Homo sapiens, UniProt Q13882); settings: KM ATP, read-out: % control
T4 construct: purchased Life Technologies (Invitrogen) SelectScreen, Z'-LYTE / Adapta
How it was run: as §1

CDK5_p25_h = biological target: T5, CDK5_p25_h (Homo sapiens, UniProt Q00535); settings: KM ATP, read-out: % control
T5 construct: purchased Life Technologies (Invitrogen) SelectScreen, Z'-LYTE / Adapta
How it was run: as §1

CDK5_p35_h = biological target: T6, CDK5_p35_h (Homo sapiens, UniProt Q00535); settings: KM ATP, read-out: % control
T6 construct: purchased Life Technologies (Invitrogen) SelectScreen, Z'-LYTE / Adapta
How it was run: as §1

CLK2_h = biological target: T7, CLK2_h (Homo sapiens, UniProt P49760); settings: KM ATP, read-out: % control
T7 construct: purchased Life Technologies (Invitrogen) SelectScreen, Z'-LYTE / Adapta
How it was run: as §1

CaMKIV_h = biological target: T8, CaMKIV_h (Homo sapiens, UniProt Q16566); settings: KM ATP, read-out: % control
T8 construct: purchased Life Technologies (Invitrogen) SelectScreen, Z'-LYTE / Adapta
How it was run: as §1

EGFR_T790M_L858R_h = biological target: T9, EGFR_T790M_L858R_h (Homo sapiens, UniProt P00533, L858R/T790M); settings: KM ATP, read-out: % control
T9 construct: purchased Life Technologies (Invitrogen) SelectScreen, Z'-LYTE / Adapta
How it was run: as §1

EGFR_T790M_h = biological target: T10, EGFR_T790M_h (Homo sapiens, UniProt P00533, T790M); settings: KM ATP, read-out: % control
T10 construct: purchased Life Technologies (Invitrogen) SelectScreen, Z'-LYTE / Adapta
How it was run: as §1

EphA1_h = biological target: T11, EphA1_h (Homo sapiens, UniProt P21709); settings: KM ATP, read-out: % control
T11 construct: purchased Life Technologies (Invitrogen) SelectScreen, Z'-LYTE / Adapta
How it was run: as §1

EphB4_h = biological target: T12, EphB4_h (Homo sapiens, UniProt P54760); settings: KM ATP, read-out: % control
T12 construct: purchased Life Technologies (Invitrogen) SelectScreen, Z'-LYTE / Adapta
How it was run: as §1

Flt3_D835Y_h = biological target: T13, Flt3_D835Y_h (Homo sapiens, UniProt P36888, D835Y); settings: KM ATP, read-out: % control
T13 construct: purchased Life Technologies (Invitrogen) SelectScreen, Z'-LYTE / Adapta
How it was run: as §1

JAK1_h = JAK1_h (Homo sapiens, UniProt P23458)
How it was run: as §1

JAK2-JH1-JH2_V617F_h = biological target: T14, JAK2-JH1-JH2_V617F_h (Homo sapiens, UniProt O60674, V617F); settings: KM ATP, read-out: % control
T14 construct: purchased Life Technologies (Invitrogen) SelectScreen, Z'-LYTE / Adapta
How it was run: as §1

JAK3_h = JAK3_h (Homo sapiens, UniProt P52333)
How it was run: as §1

JNK1-alpha1_h = biological target: T15, JNK1-alpha1_h (Homo sapiens, UniProt P45983); settings: 100 µM ATP, read-out: % control
T15 construct: purchased Life Technologies (Invitrogen) SelectScreen, Z'-LYTE / Adapta
How it was run: as §1

MARK3_h = biological target: T16, MARK3_h (Homo sapiens, UniProt P27448); settings: KM ATP, read-out: % control
T16 construct: purchased Life Technologies (Invitrogen) SelectScreen, Z'-LYTE / Adapta
How it was run: as §1

MINK_h = biological target: T17, MINK_h (Homo sapiens, UniProt Q8N4C8); settings: KM ATP, read-out: % control
T17 construct: purchased Life Technologies (Invitrogen) SelectScreen, Z'-LYTE / Adapta
How it was run: as §1

MKK6_h = biological target: T18, MKK6_h (Homo sapiens, UniProt P52564); settings: 100 µM ATP, read-out: % control
T18 construct: purchased Life Technologies (Invitrogen) SelectScreen, Z'-LYTE / Adapta
How it was run: as §1

MLK1_h = biological target: T19, MLK1_h (Homo sapiens, UniProt P80192); settings: KM ATP, read-out: % control
T19 construct: purchased Life Technologies (Invitrogen) SelectScreen, Z'-LYTE / Adapta
How it was run: as §1

MSSK1_h = biological target: T20, MSSK1_h (Homo sapiens, UniProt Q9UPE1); settings: KM ATP, read-out: % control
T20 construct: purchased Life Technologies (Invitrogen) SelectScreen, Z'-LYTE / Adapta
How it was run: as §1

MST1_h = biological target: T21, MST1_h (Homo sapiens, UniProt Q13043); settings: KM ATP, read-out: % control
T21 construct: purchased Life Technologies (Invitrogen) SelectScreen, Z'-LYTE / Adapta
How it was run: as §1

PDGFR-alpha_T674I_h = biological target: T22, PDGFR-alpha_T674I_h (Homo sapiens, UniProt P16234, T674I); settings: KM ATP, read-out: % control
T22 construct: purchased Life Technologies (Invitrogen) SelectScreen, Z'-LYTE / Adapta
How it was run: as §1

PKB-beta_h = biological target: T23, PKB-beta_h (Homo sapiens, UniProt P31751); settings: KM ATP, read-out: % control
T23 construct: purchased Life Technologies (Invitrogen) SelectScreen, Z'-LYTE / Adapta
How it was run: as §1

PKC-delta_h = biological target: T24, PKC-delta_h (Homo sapiens, UniProt Q05655); settings: KM ATP, read-out: % control
T24 construct: purchased Life Technologies (Invitrogen) SelectScreen, Z'-LYTE / Adapta
How it was run: as §1

PKD3_h = biological target: T25, PKD3_h (Homo sapiens, UniProt O94806); settings: KM ATP, read-out: % control
T25 construct: purchased Life Technologies (Invitrogen) SelectScreen, Z'-LYTE / Adapta
How it was run: as §1

PhK-gamma2_h = biological target: T26, PhK-gamma2_h (Homo sapiens, UniProt P15735); settings: KM ATP, read-out: % control
T26 construct: purchased Life Technologies (Invitrogen) SelectScreen, Z'-LYTE / Adapta
How it was run: as §1

Plk3_h = biological target: T27, Plk3_h (Homo sapiens, UniProt Q9H4B4); settings: KM ATP, read-out: % control
T27 construct: purchased Life Technologies (Invitrogen) SelectScreen, Z'-LYTE / Adapta
How it was run: as §1

Rsk4_h = biological target: T28, Rsk4_h (Homo sapiens, UniProt Q9UK32); settings: KM ATP, read-out: % control
T28 construct: purchased Life Technologies (Invitrogen) SelectScreen, Z'-LYTE / Adapta
How it was run: as §1

STK25_h = biological target: T29, STK25_h (Homo sapiens, UniProt O00506); settings: KM ATP, read-out: % control
T29 construct: purchased Life Technologies (Invitrogen) SelectScreen, Z'-LYTE / Adapta
How it was run: as §1

TrkB_h = biological target: T30, TrkB_h (Homo sapiens, UniProt Q16620); settings: KM ATP, read-out: % control
T30 construct: purchased Life Technologies (Invitrogen) SelectScreen, Z'-LYTE / Adapta
How it was run: as §1

ZAP-70_h = ZAP-70_h (Homo sapiens, UniProt P43403)
How it was run: as §1

[1] = 3 µM, KM ATP, read-out: % control
[2] = 10-point dose-response, commercial vendor

JAK3_h, sequence (P52333 whole entry): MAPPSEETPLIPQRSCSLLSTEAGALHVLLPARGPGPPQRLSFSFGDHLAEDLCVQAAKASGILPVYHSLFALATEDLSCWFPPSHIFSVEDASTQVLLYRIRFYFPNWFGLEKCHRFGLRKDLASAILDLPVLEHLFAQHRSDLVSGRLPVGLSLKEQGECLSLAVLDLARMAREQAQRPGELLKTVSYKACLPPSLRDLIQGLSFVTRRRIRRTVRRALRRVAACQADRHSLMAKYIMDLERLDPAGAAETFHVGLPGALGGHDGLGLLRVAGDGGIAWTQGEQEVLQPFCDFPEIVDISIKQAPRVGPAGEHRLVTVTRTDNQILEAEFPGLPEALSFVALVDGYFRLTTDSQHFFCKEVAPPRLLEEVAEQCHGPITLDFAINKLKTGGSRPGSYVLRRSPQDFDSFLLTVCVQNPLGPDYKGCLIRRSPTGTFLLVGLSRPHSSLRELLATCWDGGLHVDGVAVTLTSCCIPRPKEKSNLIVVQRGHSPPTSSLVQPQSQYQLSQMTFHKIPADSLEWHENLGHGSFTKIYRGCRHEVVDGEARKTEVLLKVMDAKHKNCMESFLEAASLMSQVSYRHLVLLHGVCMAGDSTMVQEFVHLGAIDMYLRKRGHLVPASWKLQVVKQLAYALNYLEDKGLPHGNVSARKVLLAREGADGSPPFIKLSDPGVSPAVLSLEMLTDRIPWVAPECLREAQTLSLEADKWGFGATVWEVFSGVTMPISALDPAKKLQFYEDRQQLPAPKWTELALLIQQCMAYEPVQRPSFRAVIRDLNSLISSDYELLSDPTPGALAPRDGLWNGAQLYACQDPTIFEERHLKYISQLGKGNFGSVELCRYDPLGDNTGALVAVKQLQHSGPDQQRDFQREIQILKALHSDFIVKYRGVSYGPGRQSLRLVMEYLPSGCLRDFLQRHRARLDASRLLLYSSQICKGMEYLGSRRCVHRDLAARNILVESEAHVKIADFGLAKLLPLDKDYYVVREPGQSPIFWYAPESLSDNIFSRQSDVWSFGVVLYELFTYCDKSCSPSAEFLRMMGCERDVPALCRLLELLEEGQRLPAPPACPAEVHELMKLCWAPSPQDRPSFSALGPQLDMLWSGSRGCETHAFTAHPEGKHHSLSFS
JAK1_h, sequence (P23458 whole entry): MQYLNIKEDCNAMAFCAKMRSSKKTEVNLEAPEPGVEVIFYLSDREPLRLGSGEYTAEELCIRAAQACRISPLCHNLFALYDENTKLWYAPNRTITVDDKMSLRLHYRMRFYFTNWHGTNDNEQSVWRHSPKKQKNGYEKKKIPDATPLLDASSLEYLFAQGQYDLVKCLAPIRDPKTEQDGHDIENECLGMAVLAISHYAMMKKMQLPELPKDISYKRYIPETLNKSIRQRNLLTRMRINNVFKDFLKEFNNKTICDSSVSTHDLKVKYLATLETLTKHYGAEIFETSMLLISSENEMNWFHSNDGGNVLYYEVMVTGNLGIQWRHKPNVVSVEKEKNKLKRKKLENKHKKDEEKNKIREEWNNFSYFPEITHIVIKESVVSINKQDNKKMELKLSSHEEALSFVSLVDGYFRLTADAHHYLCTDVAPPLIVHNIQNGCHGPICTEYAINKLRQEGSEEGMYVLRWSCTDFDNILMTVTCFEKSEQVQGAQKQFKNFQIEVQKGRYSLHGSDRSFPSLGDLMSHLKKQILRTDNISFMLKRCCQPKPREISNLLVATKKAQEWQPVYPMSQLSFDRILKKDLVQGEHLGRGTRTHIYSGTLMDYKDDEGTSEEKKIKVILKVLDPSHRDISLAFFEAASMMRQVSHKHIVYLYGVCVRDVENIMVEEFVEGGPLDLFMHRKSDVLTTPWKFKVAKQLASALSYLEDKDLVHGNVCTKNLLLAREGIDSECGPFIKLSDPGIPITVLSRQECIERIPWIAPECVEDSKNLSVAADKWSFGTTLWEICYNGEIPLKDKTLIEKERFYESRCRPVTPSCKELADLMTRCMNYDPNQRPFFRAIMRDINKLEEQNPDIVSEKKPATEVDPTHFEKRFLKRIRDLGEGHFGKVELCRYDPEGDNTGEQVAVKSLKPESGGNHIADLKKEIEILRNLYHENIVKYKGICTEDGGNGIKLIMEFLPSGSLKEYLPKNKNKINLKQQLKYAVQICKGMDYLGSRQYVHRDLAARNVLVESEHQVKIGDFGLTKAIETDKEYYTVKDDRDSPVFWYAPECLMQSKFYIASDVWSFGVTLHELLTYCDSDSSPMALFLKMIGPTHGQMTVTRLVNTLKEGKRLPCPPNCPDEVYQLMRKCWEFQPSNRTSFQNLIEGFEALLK
ZAP-70_h, sequence (P43403 whole entry): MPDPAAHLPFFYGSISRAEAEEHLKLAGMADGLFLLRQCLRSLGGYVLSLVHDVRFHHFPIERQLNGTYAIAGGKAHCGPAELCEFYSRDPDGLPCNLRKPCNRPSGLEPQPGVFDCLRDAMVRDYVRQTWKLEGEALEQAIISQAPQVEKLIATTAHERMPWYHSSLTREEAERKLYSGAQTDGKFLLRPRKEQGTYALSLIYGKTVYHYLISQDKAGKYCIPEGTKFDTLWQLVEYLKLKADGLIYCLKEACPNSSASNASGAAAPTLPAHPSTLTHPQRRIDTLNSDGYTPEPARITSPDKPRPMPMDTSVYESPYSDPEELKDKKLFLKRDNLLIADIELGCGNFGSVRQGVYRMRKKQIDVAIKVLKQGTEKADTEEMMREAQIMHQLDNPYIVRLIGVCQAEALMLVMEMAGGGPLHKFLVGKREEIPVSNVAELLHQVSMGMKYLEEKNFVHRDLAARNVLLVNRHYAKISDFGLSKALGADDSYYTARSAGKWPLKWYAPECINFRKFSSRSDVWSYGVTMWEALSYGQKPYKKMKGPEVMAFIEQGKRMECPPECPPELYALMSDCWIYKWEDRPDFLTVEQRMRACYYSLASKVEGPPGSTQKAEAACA
T23 sequence (P31751 whole entry): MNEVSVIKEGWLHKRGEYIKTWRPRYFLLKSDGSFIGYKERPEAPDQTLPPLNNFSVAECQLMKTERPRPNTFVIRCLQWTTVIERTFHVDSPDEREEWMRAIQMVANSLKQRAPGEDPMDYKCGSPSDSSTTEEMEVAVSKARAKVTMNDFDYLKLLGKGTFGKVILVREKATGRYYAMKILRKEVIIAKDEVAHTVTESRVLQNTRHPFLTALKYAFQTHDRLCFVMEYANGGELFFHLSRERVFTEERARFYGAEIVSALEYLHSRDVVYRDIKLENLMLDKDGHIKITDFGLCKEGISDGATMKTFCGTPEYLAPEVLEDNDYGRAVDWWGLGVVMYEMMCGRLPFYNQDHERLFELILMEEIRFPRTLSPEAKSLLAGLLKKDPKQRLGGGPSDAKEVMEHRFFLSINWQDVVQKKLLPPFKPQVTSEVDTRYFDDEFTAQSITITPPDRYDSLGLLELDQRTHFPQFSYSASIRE
T15 sequence (P45983 1-384 isoform P45983-2): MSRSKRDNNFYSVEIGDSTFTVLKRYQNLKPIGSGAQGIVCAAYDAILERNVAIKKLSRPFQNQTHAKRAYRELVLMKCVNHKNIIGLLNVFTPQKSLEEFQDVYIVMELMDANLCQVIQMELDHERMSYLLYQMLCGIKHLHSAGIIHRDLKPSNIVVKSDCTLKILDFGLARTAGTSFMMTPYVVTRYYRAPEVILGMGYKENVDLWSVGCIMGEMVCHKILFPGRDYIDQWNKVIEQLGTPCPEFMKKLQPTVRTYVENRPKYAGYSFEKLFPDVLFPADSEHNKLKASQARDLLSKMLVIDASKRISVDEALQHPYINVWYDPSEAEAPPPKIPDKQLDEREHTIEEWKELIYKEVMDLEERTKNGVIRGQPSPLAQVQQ
T18 sequence (P52564 whole entry): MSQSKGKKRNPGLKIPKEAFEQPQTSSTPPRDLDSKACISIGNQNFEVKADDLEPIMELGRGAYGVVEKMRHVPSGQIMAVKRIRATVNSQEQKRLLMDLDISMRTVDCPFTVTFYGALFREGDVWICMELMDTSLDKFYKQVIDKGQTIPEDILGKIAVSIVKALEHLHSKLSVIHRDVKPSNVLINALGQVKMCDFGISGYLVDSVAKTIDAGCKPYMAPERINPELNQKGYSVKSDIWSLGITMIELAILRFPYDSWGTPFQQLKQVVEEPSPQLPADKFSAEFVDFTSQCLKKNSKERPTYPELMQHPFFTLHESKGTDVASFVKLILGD
T24 sequence (Q05655 whole entry): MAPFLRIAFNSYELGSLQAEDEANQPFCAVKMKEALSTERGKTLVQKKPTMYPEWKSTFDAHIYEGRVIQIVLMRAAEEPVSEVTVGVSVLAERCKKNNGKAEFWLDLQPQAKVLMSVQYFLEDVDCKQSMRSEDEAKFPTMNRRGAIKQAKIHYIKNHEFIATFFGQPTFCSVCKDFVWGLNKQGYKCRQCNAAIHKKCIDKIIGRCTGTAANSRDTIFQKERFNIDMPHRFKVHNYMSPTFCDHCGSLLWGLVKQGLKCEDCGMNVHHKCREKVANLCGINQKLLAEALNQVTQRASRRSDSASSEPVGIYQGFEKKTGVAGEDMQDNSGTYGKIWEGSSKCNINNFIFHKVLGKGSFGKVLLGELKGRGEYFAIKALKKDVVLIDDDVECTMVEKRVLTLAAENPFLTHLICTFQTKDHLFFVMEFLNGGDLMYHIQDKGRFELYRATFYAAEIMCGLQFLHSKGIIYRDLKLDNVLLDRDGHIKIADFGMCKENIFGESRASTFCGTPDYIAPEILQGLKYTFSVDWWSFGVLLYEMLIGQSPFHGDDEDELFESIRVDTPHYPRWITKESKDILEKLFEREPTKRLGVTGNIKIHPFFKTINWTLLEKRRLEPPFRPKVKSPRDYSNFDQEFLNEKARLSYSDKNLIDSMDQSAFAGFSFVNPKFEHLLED

Molecule `c1cc(CC2CCOCC2)n2nc(Nc3ccc4c(NC5CCOCC5)n[nH]c4c3)nc2c1` [CC-509, [3-(2H-3,4,5,6-tetrahydropyran-4-ylamino)(1H-indazol-6-yl)][5-(2H-3,4,5,6-tetrahydropyran-4-ylmethyl)(2H-1,2,4-triazolo[1,5-a]pyridin-2-yl)]amine] has a remaining activity at 3 µM (ARK5_h) of 7%, a remaining activity at 3 µM (Abl_Y253F_h) of 22% and a remaining activity at 3 µM (Abl_h) of 19%. It also gave a remaining activity at 3 µM (BRK_h) of 87%, a remaining activity at 3 µM (CDK5_p25_h) of 82% and a remaining activity at 3 µM (CDK5_p35_h) of 77%. It also gave a remaining activity at 3 µM (CLK2_h) of 50%, a remaining activity at 3 µM (CaMKIV_h) of 100% and a remaining activity at 3 µM (EGFR_T790M_L858R_h) of 52%. The remaining activity at 3 µM (EGFR_T790M_h) was 54%, the remaining activity at 3 µM (EphA1_h) was 21% and the remaining activity at 3 µM (EphB4_h) was 87%. The remaining activity at 3 µM (Flt3_D835Y_h) was -1%, the remaining activity at 3 µM (JAK1_h; [1]) was 0% and the IC50 (JAK1_h; [2]) was 40 nM and 44 nM. The remaining activity at 3 µM (JAK2-JH1-JH2_V617F_h) was 8%, the remaining activity at 3 µM (JAK3_h; [1]) was 5% and the IC50 (JAK3_h; [2]) was 20 nM and 18 nM. It also gave a remaining activity at 3 µM (JNK1-alpha1_h) of 88%, a remaining activity at 3 µM (MARK3_h) of 42% and a remaining activity at 3 µM (MINK_h) of 55%. The remaining activity at 3 µM (MKK6_h) was 101%, the remaining activity at 3 µM (MLK1_h) was 2% and the remaining activity at 3 µM (MSSK1_h) was 98%. The remaining activity at 3 µM (MST1_h) was 65%, the remaining activity at 3 µM (PDGFR-alpha_T674I_h) was 80% and the remaining activity at 3 µM (PKB-beta_h) was 98%. The remaining activity at 3 µM (PKC-delta_h) was 91%, the remaining activity at 3 µM (PKD3_h) was 37% and the remaining activity at 3 µM (PhK-gamma2_h) was 103%. For the same molecule, the remaining activity at 3 µM (Plk3_h) was 88%, the remaining activity at 3 µM (Rsk4_h) was 32% and the remaining activity at 3 µM (STK25_h) was 97%. The remaining activity at 3 µM (TrkB_h) was 34%, the remaining activity at 3 µM (ZAP-70_h; [1]) was 70% and the IC50 (ZAP-70_h; [2]) was > 3000 nM.
